Calls of active or inactive are those of the source. The rule behind the calls is not given here.
Key:
[1] = biological target: T1, Atypical chemokine receptor 3 (Homo sapiens, UniProt P25106); assay: (§1) Binding affinity to NanoLuc tagged human wild type ACKR3 expressed in HEK293G cells using furimazine as NanoLuc substrate preincubated for 1 hr in dark in presence of (R)-N-(3-(2-fluorophenyl)-2methylallyl)-3,4,5-trimethoxyN-(2-(1-methylpyrrolidin-2yl)ethyl)benzamide followed by substrate addition and measured after 5 mins by NanoBRET assay; assay type: cell-based
T1 sequence (P25106 whole entry): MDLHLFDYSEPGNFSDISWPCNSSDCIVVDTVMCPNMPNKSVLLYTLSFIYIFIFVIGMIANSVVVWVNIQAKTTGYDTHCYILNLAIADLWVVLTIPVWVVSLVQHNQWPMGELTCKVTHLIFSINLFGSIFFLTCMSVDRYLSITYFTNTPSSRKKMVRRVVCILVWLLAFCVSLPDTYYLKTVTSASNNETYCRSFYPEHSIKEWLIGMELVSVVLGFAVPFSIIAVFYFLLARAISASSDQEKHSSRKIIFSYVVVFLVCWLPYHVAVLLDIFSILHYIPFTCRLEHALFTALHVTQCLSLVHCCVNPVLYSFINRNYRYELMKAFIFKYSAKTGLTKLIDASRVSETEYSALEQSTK

[2] = biological target: T1, Atypical chemokine receptor 3; assay: (§2) Binding affinity to N-terminal SNAP-tagged ACKR3 (unknown origin) transfected in HEK293T cells assessed as internalization by measuring receptor colocalized intracellular fluorescence at 50 to 100 nM incubated for 30 mins by confocal microscopic analysis; assay type: cell-based; conditions: dose 50-100 nM
[3] = biological target: T1, Atypical chemokine receptor 3; assay: Binding affinity to NanoLuc tagged human wild type ACKR3 expressed in HEK293G cells using furimazine as NanoLuc substrate preincubated for 1 hr in dark followed by substrate addition and measured after 5 mins by NanoBRET assay; assay type: cell-based; conditions: time 65.0 min
[4] = biological target: T1, Atypical chemokine receptor 3; assay: as §2, with “nM preincubated with (R)-N-(3-(2-fluorophenyl)-2-methylallyl)-3,4,5-trimethoxy-N-(2-(1-methylpyrrolidin-2-yl)ethyl)benzamide for 30 mins followed by fluorescent compound addition and further” for “nM”; assay type: cell-based; conditions: dose 50-100 nM
[5] = biological target: T1, Atypical chemokine receptor 3; assay: as §1, with “NanoBRET competition binding” for “NanoBRET”; assay type: cell-based
[6] = biological target: T1, Atypical chemokine receptor 3; assay: Binding affinity to ACKR3 (unknown origin) by [125I] CXCL12 displacement assay

Kd [1]	Activity [3]	Ki [5]	SMILES	further results
12.9 nM	Active	–	COc1cc(C(=O)N(CC[C@H]2CCCN2C)C/C(C)=C/c2ccccc2F)cc(OCCNC(=O)CCCCCNC(=O)CCC2=[N+]3C(=Cc4c(C)cc(C)n4[B-]3(F)F)C=C2)c1OC	Activity [2]: Active; Activity [4]: inactive
151 nM	Active	–	COc1cc(C(=O)N(CC[C@H]2CCCN2C)C/C(C)=C/c2ccccc2F)cc(OCCOCCOCCNC(=O)CCCCCNC(=O)CCC2=[N+]3C(C=C2)Cc2c(C)cc(C)n2[B-]3(F)F)c1OC (some centres undefined)	–
81.3 nM	Active	–	COc1cc(C(=O)N(CC[C@H]2CCCN2C)C/C(C)=C/c2ccccc2F)cc(OCCOCCNC(=O)CCCCCNC(=O)CCC2=[N+]3C(=Cc4c(C)cc(C)n4[B-]3(F)F)C=C2)c1OC	–
–	–	631 nM	COc1ccc(C(=O)N(CCC2CCCN2C)C/C(C)=C/c2cccc(F)c2)cc1OC (centres undefined)	–
–	–	10000 nM	C/C(=C\c1ccccc1)CN(CCC1CCCN1C)C(=O)c1ccc2c(c1)OCCO2 (centres undefined)	–
–	–	–	COc1cc(C(=O)N(CC[C@@H]2CCCN2C)C/C(C)=C/c2ccccc2F)cc(OC)c1OC	EC50 [6]: 20 nM
–	–	251 nM	COc1ccc(C(=O)N(CCC2CCCN2C)C/C(C)=C/c2ccccc2F)cc1OC (centres undefined)	–
–	–	–	COc1cc(C(=O)N(CC[C@H]2CCCN2C)C/C(C)=C/c2ccccc2F)cc(OC)c1OC	EC50 [6]: 5.01 nM

SMILES	Kd [1]	Activity [3]	Ki [5]	further results
Cc1ccc(C(=O)c2cn(Cc3cccc(Br)n3)c3ccccc3c2=O)cc1C	–	–	39.8 nM	–

Reference: ChEMBL document CHEMBL5357017, “Small Molecule Fluorescent Ligands for the Atypical Chemokine Receptor 3 (ACKR3)” (ACS Med Chem Lett, 2024)
